Measurements taken from patent US20220401411A1, “ZAFIRLUKAST DERIVATIVES FOR USE AS CONTRACEPTIVE AGENTS” (Rigshospitalet, priority 2019, published 2022).

Molecular target: T1, human CatSper (Homo sapiens, UniProt Q7RTX7+Q86XQ3+Q8NEC5+Q96P56)
T1 construct: isolated motile sperm cells from freshly ejaculated semen samples of healthy human donors; endogenous in cells; host or cells: motile human sperm cells from ejaculates of healthy donors (swim-up)
Test: Inhibition of CatSper activation in human sperm cells, Ca2+-fluorophore plate reader assay
Assay type: cell-based
Conditions: for Inhibition of activation of human CatSper by progesterone / Inhibition of activation of human CatSper by intracellular alkalization via NH4Cl: low μM doses, human sperm cells, [Ca2+]i fluorescence; for Inhibition of activation of human CatSper by progesterone: 500 nM progesterone; for Inhibition of activation of human CatSper by intracellular alkalization via NH4Cl: 3 mM NH4Cl; for IC50: motile human sperm cells (swim-up), Ca2+-fluorophore, CatSper activated by 500 nM progesterone, dose inhibition curve, read-out: IC50, inhibition of progesterone-induced signals through CatSper
Text: Isolated live and motile human sperm cells were loaded with a Ca^2+-sensitive fluorophore, washed and aliquoted to a 384-well plate placed in a fluorescence plate reader. Readouts in ΔF/F0 (%) on the y-axis reflect the intracellular concentration of Ca^2+ ([Ca^2+],) in the sperm cells as a function of time (FIG. 1, 2, 4) or dose of zafirlukast (FIG. 3).
After measuring the baseline fluorescence for 80s serially diluted doses of zafirlukast as well as a negative buffer control (FIGS. 1 and 4) were added to the sperm cells. Hereafter the measurement was continued for a few minutes before a second addition of 500 nM progesterone (FIG. 1) or 3 mM NH4Cl (FIG. 4) to activate CatSper. […] CatSper-signals induced by 500 nM progesterone (FIG. 2) in the presence of serially diluted doses of zafirlukast are used for the dose inhibition curve for zafirlukast on progesterone-induced signals through CatSper (FIG. 3).
Isolated live and motile human sperm cells were loaded with a Ca^2+-sensitive fluorophore, washed and aliquoted to a 384-well plate placed in a fluorescence plate reader. Readouts in ΔF/F0 (%) on the y-axis reflect the intracellular concentration of Ca^2+ ([Ca^2+],) in the sperm cells as a function of time (FIG. 5, 6, 8) or dose of aniline derivate (FIG. 7).
After measuring the baseline fluorescence for 80s serially diluted doses of aniline derivative as well as a negative buffer control (FIGS. 5 and 8) were added to the sperm cells. Hereafter the measurement was continued for a few minutes before a second addition of 500 nM progesterone (FIG. 5) or 3 mM NH4Cl (FIG. 8) to activate CatSper. […] CatSper-signals induced by 500 nM progesterone (FIG. 6) in the presence of serially diluted doses of the aniline derivative are used for the dose inhibition curve for aniline derivative on progesterone-induced signals through CatSper (FIG. 7).
(§1) To assess the effect of zafirlukast on CatSper in human sperm cells, we first isolated motile sperm cells from freshly ejaculated semen samples of healthy human donors through the swim-up method. Then we loaded these sperm cells with a Ca^2+-fluorophore, i.e. a molecule that emits light more intensively when [Ca^2+], increases. Hereafter we aliquoted these fluorophore-loaded sperm cells to the wells of micro-well plates and inserted the plate into a fluorescence plate reader, that measures the light emitted from the Ca^2+-fluorophore. After measuring the baseline fluorescence for 80s we added to the wells serially diluted doses of zafirlukast (FIGS. 1 and 4). Hereafter we continued the measurement for a few minutes before a second addition of 500 nM progesterone (FIG. 1) or 3 mM NH4Cl (FIG. 4) to activate CatSper.
as §1, with “the aniline derivative” for “zafirlukast”, “[Ca^2*],” for “[Ca^2+],”, “5” for “1”, “8).” for “4).”, “5)” for “1)”, “8)” for “4)”

| Compound | Inhibition of activation of human CatSper by progesterone | Inhibition of activation of human CatSper by intracellular alkalization via NH4Cl | IC50 |
| --- | --- | --- | --- |
| COc1cc(C(=O)NS(=O)(=O)c2ccccc2C)ccc1Cc1cn(C)c2ccc(N)cc12 [aniline derivative] | inhibits the activation of human CatSper | inhibits the activation of human CatSper | ~0.9 µM |
| COc1cc(C(=O)NS(=O)(=O)c2ccccc2C)ccc1Cc1cn(C)c2ccc(NC(=O)OC3CCCC3)cc12 [zafirlukast] | inhibits the activation of human CatSper | inhibits the activation of human CatSper | ~2.2 µM |
